Data reported in patent US8609666B2, “2-morpholino-pyrido[3,2-D]pyrimidines” (Merck Serono SA, priority 2009, dated 2013).

Legend:
[1] = system: Human recombinant GST-PI3K; assay: PI3K induced-lipid phosphorylation scintillation proximity assay (neomycin-coated SPA beads); assay type: biochemical; conditions: amount necessary to achieve 50% inhibition of PI3K; 120 min at room temperature
Excerpt: The efficacy of compounds of the invention in inhibiting the PI3K induced-lipid phosphorylation may be tested in the following binding assay. The assay combines the scintillation proximity assay technology (SPA, Amersham) with the capacity of neomycin (a polycationic antibiotic) to bind phospholipids with high affinity and specificity. The Scintillation Proximity Assay is based on the properties of weakly emitting isotopes (such as ^3H, ^125I, ^33P). Coating SPA beads with neomycin allows the detection of phosphorylated lipid substrates after incubation with recombinant PI3K and radioactive ATP in the same well, by capturing the radioactive phospholipids to the SPA beads through their specific binding to neomycin. To a 96 wells MTP containing 10 μl of the test compound of Formula (I) (solubilized in 10% DMSO; to yield a concentration of 100, 25, 5.0, 1.25, 0.312, 0.078, 0.0195, 0.00488, 0.00122 and 0.0003 μM of the test compound), the following assay components are added: 1) 10 μL of lipid micelles 2) […] of Kinase buffer ([^33P]γATP162 μM/300 nCi, MgCl2 2.5 mM, DTT 2.5 mM, Na3VO4 25 μM in Hepes 40 mM, pH 7.4) and 3) 10 μL (100 ng) of Human recombinant GST-PI3K (in Hepes 40 mM, pH 7.4, ethylenglycol 4%). After incubation at room temperature for 120 minutes, with gentle agitation, the reaction is stopped by addition of 200 μL of a solution containing 250 μg of neomycin-coated PVT SPA beads, ATP 60 mM and EDTA 6.2 mM in PBS. The assay is further incubated at room temperature for 60 minutes with gentle agitation to allow binding of phospholipids to neomycin-SPA beads. After precipitation of the neomycin-coated PVT SPA beads for 5 minutes at 1500×g, radioactive PtdIns(3)P is quantified by scintillation counting in a Wallac MicroBeta™ plate counter. The values indicated in Table I below refer to the IC50 (μM) with respect to PI3K, i.e. the amount necessary to achieve 50% inhibition of said target. Said values show a considerable inhibitory potency of pyridopyrimidine compounds with regard to PI3K.

CK2 protein kinase = conditions: Fruman et al., 1998; cited from earlier work

Row | SMILES | IC50 [1] | IC50 (CK2 protein kinase)
1 | O=C(O)c1cc(Cl)c2nc(N3CCOCC3)nc(-c3ccccc3)c2n1 [Example 64, 8-Chloro-2-morpholin-4-yl-4-phenylpyrido[3,2-d]pyrimidine-6-carboxylic acid] | 678 nM | –
2 | COCCN(C)c1cc(C(=O)O)nc2c(-c3cc(F)cc(F)c3)nc(N3CCOCC3)nc12 [Example 65, 4-(3,5-Difluorophenyl)-8-[(2-methoxyethyl)(methyl)amino]-2-morpholin-4-ylpyrido[3,2-d]pyrimidine-6-carboxylic acid] | 1290 nM | –
3 | O=c1cc(N2CCOCC2)oc2c(-c3ccccc3)cccc12 [LY294002] | – | 5000 to 10000 nM

Second part, led by results:

Row | IC50 [1] | SMILES | IC50 (CK2 protein kinase)
4 | 1100 nM | CN(C)c1cc(C(=O)O)nc2c(-c3cccc(C#N)c3)nc(N3CCOCC3)nc12 [Example 66, 4-(3-Cyanophenyl)-8-(dimethylamino)-2-morpholin-4-ylpyrido[3,2-d]pyrimidine-6-carboxylic acid] | –
5 | 30 nM | CS(=O)(=O)N1CCN(c2cc(C(=O)O)nc3c(-c4ccccc4)nc(N4CCOCC4)nc23)CC1 [Example 67, 8-[4-(Methylsulfonyl)piperazin-1-yl]-2-morpholin-4-yl-4-phenylpyrido[3,2-d]pyrimidine-6-carboxylic acid] | –
